Measurements: publication PMC11532403 (Signal Transduction and Targeted Therapy, 2024)
Values joined by “and” are separate entries in the source; they are usually repeats but may differ in a detail not shown here. Identical values can stand only once. Like-named read-outs stand apart in the source and are kept apart here.

Key:
[1] = tested on: NIH-3T3 cells; assay: Proliferation assay (CellTiter-Glo); format: cell-based, murine; details: Mus musculus, NIH3T3; NIH-3T3 (RET-negative); read-out: Cellular Viability IC50
Protocol: The cell lines HEK293T, Baf3, TT cell and NIH-3T3 were obtained from the Cell Resource Center, Peking Union Medical College (PCRC). […] All stably transformed BaF3 cells were cultured in RPMI 1640 without IL‐3. […] Cells were cultured at 37 °C under 5 % CO2 and high humidity conditions. […] Cell viability was assessed by luminescence using CellTiter-Glo 2.0 assay (Promega). IC50 curve fitting was performed using GraphPad Prism 9.0.

[2] = tested on: Baf3-CCDC6-RET^M918T xenograft; assay: Tumor xenograft model; format: in vivo, BALB/c nude mice; details: 9 days
Protocol: (§1) All procedures relating to animal handling, care, and treatment were performed according to the Beijing Laboratory Animal Management Regulations. 6-week-old male BALB/c nude mice were inoculated subcutaneously into the flank with Baf3-CCDC6-RET^WT (5*10^6 cells/ 0.1 mL/ each), Baf3-CCDC6-RET^M918T (5*10^6 cells/0.1 mL/each), Baf3-CCDC6-RET^V804M (5*10^6 cells/ 0.1 mL/ each), or HEK293T-KIF5B-RET^V804M (5*10^6 cells/ 0.1 mL/ each). Mice were randomized by tumor size into groups of 10 to 12 when tumor volume reached approximately 100-150 mm^3. […] Tumor size and body weight were measured two times each week, and tumor volume was calculated with the following formula: [length × (width)^2]/ 2. Statistical significance was calculated by using two-way ANOVA test to assess the difference in tumor volumes between the control (vehicle-treated) and treatment groups.

[3] = tested on: Baf3-CCDC6-RET^V804M xenograft; assay: Tumor xenograft model; format: in vivo, BALB/c nude mice; details: 9 days
Protocol: as §1

[4] = tested on: Baf3-CCDC6-RET^WT xenograft; assay: Tumor xenograft model; format: in vivo, BALB/c nude mice
Protocol: as §1

[5] = tested on: HEK293T-KIF5B-RET^V804M xenograft; assay: Tumor xenograft model; format: in vivo, BALB/c nude mice; details: 14 days
Protocol: as §1

[6] = biological target: hERG potassium channel (Homo sapiens, UniProt Q12809); assay: hERG whole-cell patch clamp; format: cell-based; details: ± 368.5 nM, read-out: hERG current IC50
Text: The rapidly activating potassium channel encoded by the human ether a-go-go-related gene (hERG) is an important ion channel involved in the formation of phase 3 repolarisation of the myocardial action potential. Pharmacological blockade of hERG channels can lead to prolonged cardiac repolarisation with the electrocardiographic manifestation of a prolonged QT interval, known as long QT interval syndrome. Drug-induced delayed ventricular repolarisation can in some cases lead to a fatal arrhythmia, tip-twist ventricular tachycardia.

[7] = 28-day repeat-dose toxicity; format: in vivo; details: SD, rat, plasma, po; for AUC(0-t): read-out: AUClast at STD10, day 28; for Cmax: read-out: Cmax at STD10, day 28
[8] = tested on: SD rats; assay: 28-day repeat-dose toxicity; format: in vivo
[9] = Pharmacokinetics in beagles; format: in vivo; details: both sexes, beagle, dog, plasma, iv, 1 mg/kg i.v.
[10] = tested on: patients with advanced RET-altered solid tumors; assay: Phase 1 trial: treatment-related adverse events (CTCAE v5.0), DLT, MTD;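 note: Open-label single-arm first-in-human phase 1 study at six Chinese sites with 3 + 3 dose escalation and expansion, adverse events given descriptively as patient counts and percentages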
Protocol: This single-arm, open-label, first-in-human, dose-escalation and dose-expansion phase 1 study was conducted across six sites in China (NCT05278364). […] Dose escalation followed a 3 + 3 design, incorporating accelerated titration[41] for the first two dose levels and a modified Fibonacci dose escalation.[42]
The primary endpoints for this study were to determine the MTD, DLT, RP2D and safety. […] All responses required a confirmation of radiologic assessment at least 4 weeks after the first assessment.
The Pharmacokinetic Analysis Set (PKAS) included all patients with at least one evaluable PK sample (n = 43). Descriptive statistics were used for baseline data, summarizing continuous data with mean, standard deviation, median, minimum, and maximum, and categorical data with frequency and percentage. Safety analysis was descriptive, including adverse events summarized by frequency and severity. PK parameter analysis was performed using Phoenix WinNonlin version 8.0 (Certara L.P. [Pharsight], St. Louis, MO, USA), and results were summarized using geometric mean and coefficient of variation. CIs for response rates were calculated using the Clopper-Pearson method. […] All analysis were performed with SAS statistical software, version 9.2 (SAS Institute).

[11] = high-dose study, 10 mg/kg (so in the source)
[12] = preclinical SD rat repeated administration

Sequence of hERG potassium channel (Q12809 whole entry): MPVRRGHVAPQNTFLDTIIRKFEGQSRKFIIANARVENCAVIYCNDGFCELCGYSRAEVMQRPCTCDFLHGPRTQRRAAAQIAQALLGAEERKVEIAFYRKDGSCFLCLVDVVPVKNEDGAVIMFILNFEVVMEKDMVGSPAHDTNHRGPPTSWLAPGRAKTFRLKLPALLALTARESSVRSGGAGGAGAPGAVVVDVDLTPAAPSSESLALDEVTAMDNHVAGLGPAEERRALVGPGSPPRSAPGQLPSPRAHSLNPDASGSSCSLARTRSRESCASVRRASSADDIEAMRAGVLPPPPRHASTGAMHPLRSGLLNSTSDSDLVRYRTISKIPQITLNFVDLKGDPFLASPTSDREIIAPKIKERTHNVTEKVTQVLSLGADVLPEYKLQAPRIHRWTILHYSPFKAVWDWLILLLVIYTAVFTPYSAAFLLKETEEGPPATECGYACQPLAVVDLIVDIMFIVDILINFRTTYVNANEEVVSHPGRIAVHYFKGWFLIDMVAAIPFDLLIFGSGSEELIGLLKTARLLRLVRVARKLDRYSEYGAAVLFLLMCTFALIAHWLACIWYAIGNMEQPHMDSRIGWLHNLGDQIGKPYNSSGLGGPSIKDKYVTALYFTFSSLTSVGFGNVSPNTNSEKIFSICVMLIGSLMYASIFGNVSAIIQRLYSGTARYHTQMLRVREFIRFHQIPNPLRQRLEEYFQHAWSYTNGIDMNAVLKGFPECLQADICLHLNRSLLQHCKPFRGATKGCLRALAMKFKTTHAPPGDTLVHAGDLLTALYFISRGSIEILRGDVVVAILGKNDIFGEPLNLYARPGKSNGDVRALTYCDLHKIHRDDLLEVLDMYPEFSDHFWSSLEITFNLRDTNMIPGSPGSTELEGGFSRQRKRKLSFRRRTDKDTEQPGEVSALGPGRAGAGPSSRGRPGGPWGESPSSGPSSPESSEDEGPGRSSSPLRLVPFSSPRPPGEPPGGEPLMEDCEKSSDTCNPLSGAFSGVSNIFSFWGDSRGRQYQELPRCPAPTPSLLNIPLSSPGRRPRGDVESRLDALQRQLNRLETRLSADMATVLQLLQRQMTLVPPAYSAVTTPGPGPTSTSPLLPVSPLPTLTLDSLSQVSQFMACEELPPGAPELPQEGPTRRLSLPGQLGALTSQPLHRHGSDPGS

COc1ccc(CN2C3CC2CN(c2ccc(-c4cc(N5CC(C)(O)C5)cn5ncc(C#N)c45)cn2)C3)cn1 [SY-5007, 6-(3-hydroxy-3-methylazetidin-1-yl)-4-(6-(6-((6-methoxypyridin-3-yl)methyl)-3,6-diazabicyclo[3.1.1]heptan-3-yl)pyridin-3-yl)pyrazolo[1,5-a]pyridine-3-carbonitrile]
IC50 [1]: > 5 µM
TGI ([2]; 10 mg/kg oral): 12.4%
TGI ([2]; 20 mg/kg oral): 40.9%
TGI ([2]; 40 mg/kg oral): 93.0%
TGI ([3]; 10 mg/kg oral): 35.4%
TGI ([3]; 20 mg/kg oral): 85.3%
TGI ([3]; 40 mg/kg oral): 109%
TGI ([4]; 3 mg/kg twice daily, 13 days): 59.2%
TGI ([4]; 6 mg/kg twice daily, 13 days): 80.1%
TGI ([4]; 12 mg/kg twice daily, 13 days): 93.5%
TGI [4, 11]: 112%
Tumor regression rate (REG) [4, 11]: 97.3%
TGI ([4]; high-dose study, 20 mg/kg): 107%
Tumor regression rate (REG) ([4]; high-dose study, 20 mg/kg): 57.7%
Tumor regression rate (REG) ([4]; high-dose study, 40 mg/kg (so in the source)): 0%
TGI ([5]; 10 mg/kg twice daily): 40.7%
TGI ([5]; 20 mg/kg twice daily): 70.3%
TGI ([5]; 40 mg/kg twice daily): 94.1%
IC50 [6]: 3.3 µM
AUC(0-t) ([7]; female, females 60 mg/kg): 122 µg·h/mL
Cmax ([7]; female, females 60 mg/kg): 14900 ng/mL
AUC(0-t) ([7]; male, males 30 mg/kg): 111 µg·h/mL
Cmax ([7]; male, males 30 mg/kg): 8160 ng/mL
STD10 ([8]; female SD rats, GLP long toxicity study): 60 mg/kg
STD10 ([8]; females, 28 days): 60 mg/kg
STD10 ([8]; male SD rats, GLP long toxicity study): 30 mg/kg
STD10 ([8]; males, 28 days): 30 mg/kg
Electrolyte abnormalities (blood PK) [8, 12]: ? Abnormalities such as blood PK were found in the preclinical SD rat and Beagle repeated administration test of this product, and the relevant regulations were carried out in consideration of the fact that similar mechanism of action drugs have been reported.
Plasma protein: TP, ALB, A/G [8, 12]: ? TP, ALB, A/G were abnormal in the repeated administration test of preclinical SD rats of this product, and considering that drugs with similar mechanisms of action have been reported, relevant provisions are made.
TG (hyperlipidemia) [8, 12]: ? TG is abnormal in the repeated administration test of preclinical SD rats of this product, and considering that drugs with similar mechanisms of action have been reported, relevant provisions are made.
Bleeding tendency: gastric mucosa and ileum findings ([8]; preclinical SD rats, repeated dosing): ? This drug was found to have gastric mucosal reddening and ileal discolouration in preclinical SD rats and Beagle dogs in repeated dosing tests, so the relevant provisions were made.
Kidney: creatinine ([8]; repeat dose study in SD rats): elevated creatinine
clearance [9]: 6.63 mL/min/kg
half-life [9]: 3.27 h
Vd ([9]; read-out: Vss): 1.43 L/kg
Dose-limiting toxicity (DLT) ([10]; 20 mg QD to 200 mg BID): No dose-limiting toxicity (DLT) was observed
Albuminuria ([10]; All Grade, Total (n = 122)): 45 (36.9) n (%)
Anemia ([10]; All Grade, Total (n = 122)): 27 (22.1) n (%)
Any TRAE ([10]; All Grade, Total (n = 122)): 96.7 n (%) and 118 (96.7) n (%)
Conjugated Hyperbilirubinemia ([10]; All Grade, Total (n = 122)): 23 (18.9) n (%)
Diarrhea ([10]; All Grade, Total (n = 122)): 54.1 n (%) and 66 (54.1) n (%)
Dry mouth ([10]; All Grade, Total (n = 122)): 40 (32.8) n (%)
Facial edema ([10]; All Grade, Total (n = 122)): 35 (28.7) n (%)
Hyperbilirubinemia ([10]; All Grade, Total (n = 122)): 51 (41.8) n (%)
Hyperglycemia ([10]; All Grade, Total (n = 122)): 22 (18.0) n (%)
Hyperphosphatemia ([10]; All Grade, Total (n = 122)): 42 (34.4) n (%)
Hypertension ([10]; All Grade, Total (n = 122)): 50 (41.0) n (%)
Hypertriglyceridemia ([10]; All Grade, Total (n = 122)): 55 (45.1) n (%)
Hyperuricemia ([10]; All Grade, Total (n = 122)): 41 (33.6) n (%)
Hypoalbuminemia ([10]; All Grade, Total (n = 122)): 33 (27.0) n (%)
Hypocalcemia ([10]; All Grade, Total (n = 122)): 34 (27.9) n (%)
Hyponatremia ([10]; All Grade, Total (n = 122)): 23 (18.9) n (%)
Hypopotassemia ([10]; All Grade, Total (n = 122)): 19 (15.6) n (%)
Hypothyroidism ([10]; All Grade, Total (n = 122)): 38 (31.1) n (%)
Increased alanine aminotransferase ([10]; All Grade, Total (n = 122)): 56.6 n (%) and 69 (56.6) n (%)
Increased aspartate aminotransferase ([10]; All Grade, Total (n = 122)): 69.7 n (%) and 85 (69.7) n (%)
Increased blood alkaline phosphatase ([10]; All Grade, Total (n = 122)): 43 (35.2) n (%)
Increased blood creatine ([10]; All Grade, Total (n = 122)): 45 (36.9) n (%)
Increased blood creatine phosphokinase ([10]; All Grade, Total (n = 122)): 40 (32.8) n (%)
Increased blood creatine phosphokinase MB ([10]; All Grade, Total (n = 122)): 54 (44.3) n (%)
Increased blood lactate dehydrogenase ([10]; All Grade, Total (n = 122)): 51 (41.8) n (%)
Increased γ-Glutamyl transferase ([10]; All Grade, Total (n = 122)): 28 (23.0) n (%)
Leukopenia ([10]; All Grade, Total (n = 122)): 56 (45.9) n (%)
Lymphopenia ([10]; All Grade, Total (n = 122)): 30 (24.6) n (%)
Neutropenia ([10]; All Grade, Total (n = 122)): 54.1 n (%) and 66 (54.1) n (%)
Palmoplantar erythema syndrome ([10]; All Grade, Total (n = 122)): 23 (18.9) n (%)
Peripheral edema ([10]; All Grade, Total (n = 122)): 23 (18.9) n (%)
Thrombocytopenia ([10]; All Grade, Total (n = 122)): 50 (41.0) n (%)
Weakness ([10]; All Grade, Total (n = 122)): 20 (16.4) n (%)
Weight loss ([10]; All Grade, Total (n = 122)): 22 (18.0) n (%)
Xeromycteria ([10]; All Grade, Total (n = 122)): 21 (17.2) n (%)
Conjugated Hyperbilirubinemia ([10]; Grade ⩾ 3, dose group): 0 (0.0) n (%)
Dry mouth ([10]; Grade ⩾ 3, dose group): 0 (0.0) n (%)
Facial edema ([10]; Grade ⩾ 3, dose group): 0 (0.0) n (%)
Hyperglycemia ([10]; Grade ⩾ 3, dose group): 0 (0.0) n (%)
Hyperphosphatemia ([10]; Grade ⩾ 3, dose group): 0 (0.0) n (%)
Hyperuricemia ([10]; Grade ⩾ 3, dose group): 0 (0.0) n (%)
Hypoalbuminemia ([10]; Grade ⩾ 3, dose group): 0 (0.0) n (%)
Hypothyroidism ([10]; Grade ⩾ 3, dose group): 0 (0.0) n (%)
Increased blood alkaline phosphatase ([10]; Grade ⩾ 3, dose group): 0 (0.0) n (%)
Increased blood creatine ([10]; Grade ⩾ 3, dose group): 0 (0.0) n (%)
Increased blood lactate dehydrogenase ([10]; Grade ⩾ 3, dose group): 0 (0.0) n (%)
Peripheral edema ([10]; Grade ⩾ 3, dose group): 0 (0.0) n (%)
Xeromycteria ([10]; Grade ⩾ 3, dose group): 0 (0.0) n (%)
Dose discontinuation due to TRAE ([10]; n = 122): 2 (1.6%) n (%)
Dose interruption due to diarrhea ([10]; n = 122): 10.7%
Dose interruption due to hypertension ([10]; n = 122): 12.3%
Dose reduction due to hypertension ([10]; n = 122): 5.7%
TRAE-induced dose interruption ([10]; n = 122): 56 (45.9%) n (%)
TRAE-induced dose reduction ([10]; n = 122): 29 (23.8%) n (%)
Treatment-related deaths ([10]; n = 122): no treatment-related deaths
Treatment-related serious adverse events (TRSAEs) ([10]; n = 122): 13 (10.7%) n (%)
Maximum tolerated dose (MTD) ([10]; up to 200 mg BID): not reached
